Laboratory results: patent publication US20250320224A1 (DOMAIN THERAPEUTICS, priority 2022, published 2025)
Counter-ions that a name gives are not always drawn.

Target: T1, human PAR-2 (hPAR-2) receptor (Homo sapiens, UniProt P55085)
T1 construct: expressed in HEK-293 cells in an endogenous manner; endogenous in cells; host or cells: HEK-293
T1 sequence (P55085 26-397): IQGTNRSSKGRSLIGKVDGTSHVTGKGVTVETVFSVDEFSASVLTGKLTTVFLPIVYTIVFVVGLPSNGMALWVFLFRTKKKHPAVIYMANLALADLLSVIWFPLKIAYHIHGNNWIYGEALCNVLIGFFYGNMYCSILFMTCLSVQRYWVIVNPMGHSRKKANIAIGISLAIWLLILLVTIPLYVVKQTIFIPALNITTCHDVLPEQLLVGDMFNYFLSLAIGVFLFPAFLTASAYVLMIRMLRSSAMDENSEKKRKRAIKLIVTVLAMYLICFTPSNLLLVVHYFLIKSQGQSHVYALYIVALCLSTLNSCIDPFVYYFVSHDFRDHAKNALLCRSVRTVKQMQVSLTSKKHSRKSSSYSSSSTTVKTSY
Assay: In vitro human PAR-2 functional antagonist activity using calcium assays
Format: cell-based
Conditions: hPAR-2 endogenously expressed in HEK-293 cells; stimulated by 2-Furoyl-LIGRLO-NH2 peptide; Fluo4AM intracellular calcium, FLIPR Tetra
Procedure, shortened: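 HEK-293 cells with endogenous hPAR-2 were loaded with Fluo4AM and read for intracellular Ca2+ on FLIPR. After 10 min with compound alone, cells were stimulated with 2-Furoyl-LIGRLO-NH2 at the concentration giving 80% of maximal response. Inhibition was then recorded over 5 min relative to buffer and agonist-only signals.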

Compound	IC50
COC1CC2(C1)CN(c1ccc(Cl)c(F)c1)c1ccc(C(=O)N3CCN(c4cc(C)c(C(=O)O)c(C)n4)CC3(C)C)nc12 (single isomer, unassigned) [Example 199, 6-(4-(1′-(4-chloro-3-fluorophenyl)-3-methoxy-1′,2′-dihydrospiro[cyclobutane-1,3′-pyrrolo[3,2-b]pyridine]-5′-carbonyl)-3,3-dimethylpiperazin-1-yl)-2,4-dimethylnicotinic acid]	< 500 nM
Cc1cc(N2CCN(C(=O)c3ccc4c(n3)C3(CC(C)C3)CN4c3ccc(Cl)c(F)c3)C(C)(C)C2)nc(C)c1C(=O)O (single isomer, unassigned) [Example 156, 6-(4-(1′-(4-chloro-3-fluorophenyl)-3-methyl-1′,2′-dihydrospiro[cyclobutane-1,3′-pyrrolo[3,2-b]pyridine]-5′-carbonyl)-3,3-dimethylpiperazin-1-yl)-2,4-dimethylnicotinic acid]	< 500 nM
Cc1cc(N2CCN(C(=O)c3cnc4c(n3)C(C)(C)CN4c3ccc(Cl)c(F)c3)C(C)(C)C2)c(C(=O)O)c(C)n1 [Example 263, 4-(4-(5-(4-chloro-3-fluorophenyl)-7,7-dimethyl-6,7-dihydro-5H-pyrrolo[2,3-b]pyrazine-2-carbonyl)-3,3-dimethylpiperazin-1-yl)-2,6-dimethylnicotinic acid]	> 10000 nM
CC1(C)CN(c2ccc(Cl)c(F)c2)c2ccc(C(=O)N3CCNCC3(C)C)nc21 [Example 22, (1-(4-chloro-3-fluorophenyl)-3,3-dimethyl-2,3-dihydro-1H-pyrrolo[3,2-b]pyridin-5-yl)(2,2-dimethylpiperazin-1-yl)methanone hydrochloride]	500 to 10000 nM
Cc1cc(N2CCN(C(=O)c3cnc4c(n3)C(C)(C)CN4C3CCCC3)C(C)(C)C2)nc(C)c1C(=O)O [Example 183, 6-(4-(5-cyclopentyl-7,7-dimethyl-6,7-dihydro-5H-pyrrolo[2,3-b]pyrazine-2-carbonyl)-3,3-dimethylpiperazin-1-yl)-2,4-dimethylnicotinic acid]	> 10000 nM
CC1(C)CN(c2ccc(Cl)c(F)c2)c2ccc(C(=O)N3CCN(c4nc(C(N)=O)cs4)CC3(C)C)nc21 [Example 83, 2-(4-(1-(4-chloro-3-fluorophenyl)-3,3-dimethyl-2,3-dihydro-1H-pyrrolo[3,2-b]pyridine-5-carbonyl)-3,3-dimethylpiperazin-1-yl)thiazole-4-carboxamide]	< 500 nM
CC(C)(CO)NC(=O)c1ccc2c(n1)C(C)(C)CN2c1ccc(Cl)c(F)c1 [Example 51, 1-(4-chloro-3-fluorophenyl)-N-(1-hydroxy-2-methylpropan-2-yl)-3,3-dimethyl-2,3-dihydro-1H-pyrrolo[3,2-b]pyridine-5-carboxamide]	500 to 10000 nM
CC1(C)CN(c2ccc(C(=O)N3CCN(c4cncc(C(=O)O)c4)CC3(C)C)c(F)c2)c2ccc(C(=O)N3CCN(c4cncc(C(=O)O)c4)CC3(C)C)nc21 [Example 152, 5-(4-(4-(5-(4-(5-carboxypyridin-3-yl)-2,2-dimethylpiperazine-1-carbonyl)-3,3-dimethyl-2,3-dihydro-1H-pyrrolo[3,2-b]pyridin-1-yl)-2-fluorobenzoyl)-3,3-dimethylpiperazin-1-yl)nicotinic acid]	> 10000 nM
CC1(C)CN(c2ccc(Cl)c(F)c2)c2cc(O)c(C(=O)N3CCN(c4ccc(CC(=O)O)cn4)CC3(C)C)nc21 [Example 258, 2-(6-(4-(1-(4-chloro-3-fluorophenyl)-6-hydroxy-3,3-dimethyl-2,3-dihydro-1H-pyrrolo[3,2-b]pyridine-5-carbonyl)-3,3-dimethylpiperazin-1-yl)pyridin-3-yl)acetic acid]	500 to 10000 nM
CN(C(=O)c1ccc2c(n1)C(C)(C)CN2c1ccc(Cl)c(F)c1)C1(C(N)=O)CC1 [Example 48, N-(1-carbamoylcyclopropyl)-1-(4-chloro-3-fluorophenyl)-N,3,3-trimethyl-2,3-dihydro-1H-pyrrolo[3,2-b]pyridine-5-carboxamide]	500 to 10000 nM
Cc1nc(N2CCN(C(=O)c3ccc4c(n3)C(C)(C)CN4c3ccc(Cl)c(F)c3)C(C)(C)C2)ncc1C(=O)O [Example 39, 2-(4-(1-(4-chloro-3-fluorophenyl)-3,3-dimethyl-2,3-dihydro-1H-pyrrolo[3,2-b]pyridine-5-carbonyl)-3,3-dimethylpiperazin-1-yl)-4-methylpyrimidine-5-carboxylic acid hydrochloride]	< 500 nM
CC1(C)CN(c2ccc(F)c(F)c2)c2ccc(C(=O)N3CCNC(=O)C3(C)C)nc21 [Example 12, 4-(1-(3,4-difluorophenyl)-3,3-dimethyl-2,3-dihydro-1H-pyrrolo[3,2-b]pyridine-5-carbonyl)-3,3-dimethylpiperazin-2-one]	< 500 nM
COc1cc2c(nc1C(=O)N1CCN(c3ccc(CC(=O)O)cn3)CC1(C)C)C(C)(C)CN2c1ccc(Cl)c(F)c1 [Example 255, 2-(6-(4-(1-(4-chloro-3-fluorophenyl)-6-methoxy-3,3-dimethyl-2,3-dihydro-1H-pyrrolo[3,2-b]pyridine-5-carbonyl)-3,3-dimethylpiperazin-1-yl)pyridin-3-yl)acetic acid]	> 10000 nM
Cc1cc(N2CCN(C(=O)c3ccc4c(n3)C3(CN4c4ccc(Cl)c(F)c4)CC(F)(F)C3)C(C)(C)C2)nc(C)c1C(=O)O [Example 89, 6-(4-(1′-(4-chloro-3-fluorophenyl)-3,3-difluoro-1′,2′-dihydrospiro[cyclobutane-1,3′-pyrrolo[3,2-b]pyridine]-5′-carbonyl)-3,3-dimethylpiperazin-1-yl)-2,4-dimethylnicotinic acid]	< 500 nM
CC1(C)C(=O)NCCN1C(=O)c1ccc2c(n1)C1(CCOCC1)CN2c1ccc(Cl)c(F)c1 [Example 55, 4-(1′-(4-chloro-3-fluorophenyl)-1′,2,2′,3,5,6-hexahydrospiro[pyran-4,3′-pyrrolo[3,2-b]pyridine]-5′-carbonyl)-3,3-dimethylpiperazin-2-one]	< 500 nM

Other lines, results leading:

IC50	Compound
< 500 nM	CC1(C)CN(c2ccc(CC(=O)O)cn2)CCN1C(=O)c1ccc2c(n1)C1(CN2c2ccc(Cl)c(F)c2)CC(F)(F)C1 [Example 128, 2-(6-(4-(1′-(4-chloro-3-fluorophenyl)-3,3-difluoro-1′,2′-dihydrospiro[cyclobutane-1,3′-pyrrolo[3,2-b]pyridine]-5′-carbonyl)-3,3-dimethylpiperazin-1-yl)pyridin-3-yl)acetic acid]
< 500 nM	CCC1(CC)CN(c2ccc(Cl)c(F)c2)c2ccc(C(=O)N3CCN(c4ccc(CC(=O)O)cn4)CC3(C)C)nc21 [Example 148, 2-(6-(4-(1-(4-chloro-3-fluorophenyl)-3,3-diethyl-2,3-dihydro-1H-pyrrolo[3,2-b]pyridine-5-carbonyl)-3,3-dimethylpiperazin-1-yl)pyridin-3-yl)acetic acid]
< 500 nM	CC1(C)CN(c2ccc(CC(=O)O)cn2)CCN1C(=O)c1cnc2c(n1)C1(CCC1)CN2c1ccc(Cl)c(F)c1 [Example 231, 2-(6-(4-(5′-(4-chloro-3-fluorophenyl)-5′,6′-dihydrospiro[cyclobutane-1,7′-pyrrolo[2,3-b]pyrazine]-2′-carbonyl)-3,3-dimethylpiperazin-1-yl)pyridin-3-yl)acetic acid]
< 500 nM	Cc1ccc(N2CC(C)(C)c3nc(C(=O)N4CCN(c5ccc(CC(=O)O)cn5)CC4(C)C)cnc32)cc1F [Example 203, 2-(6-(4-(5-(3-fluoro-4-methylphenyl)-7,7-dimethyl-6,7-dihydro-5H-pyrrolo[2,3-b]pyrazine-2-carbonyl)-3,3-dimethylpiperazin-1-yl)pyridin-3-yl)acetic acid]
< 500 nM	CC1(C)CN(c2ccc(F)c(F)c2)c2ncc(C(=O)N3CCN(c4ccc(CC(=O)O)cn4)CC3(C)C)nc21 [Example 171, 2-(6-(4-(5-(3,4-difluorophenyl)-7,7-dimethyl-6,7-dihydro-5H-pyrrolo[2,3-b]pyrazine-2-carbonyl)-3,3-dimethylpiperazin-1-yl)pyridin-3-yl)acetic acid]
< 500 nM	COCC1CC2(C1)CN(c1ccc(Cl)c(F)c1)c1ccc(C(=O)N3CCN(c4ccc(CC(=O)O)cn4)CC3(C)C)nc12 (centres unmarked) [Example 239, 2-(6-(4-(1′-(4-chloro-3-fluorophenyl)-3-(methoxymethyl)-1′,2′-dihydrospiro[cyclobutane-1,3′-pyrrolo[3,2-b]pyridine]-5′-carbonyl)-3,3-dimethylpiperazin-1-yl)pyridin-3-yl)acetic acid]
> 10000 nM	CC1(C)CN(c2ccc(Cl)c(F)c2)c2ncc(C(=O)N3CCN(c4ccc(CC(=O)O)cn4)CC3(C)C)nc2O1 [Example 268, 2-(6-(4-(4-(4-chloro-3-fluorophenyl)-2,2-dimethyl-3,4-dihydro-2H-pyrazino[2,3-b][1,4]oxazine-7-carbonyl)-3,3-dimethylpiperazin-1-yl)266yridine-3-yl)acetic acid]
< 500 nM	CC1(C)CN(c2cc(F)c(F)c(F)c2)c2ncc(C(=O)N3CCN(c4ccc(CC(=O)O)cn4)CC3(C)C)nc21 [Example 217, 2-(6-(4-(7,7-dimethyl-5-(3,4,5-trifluorophenyl)-6,7-dihydro-5H-pyrrolo[2,3-b]pyrazine-2-carbonyl)-3,3-dimethylpiperazin-1-yl)pyridin-3-yl)acetic acid]
